Laboratory results published in article PMC8948939 (Pharmaceutics, 2022).
Like-named read-outs stand apart in the source and are kept apart here.

Legend:
[1] = Michaelis-Menten kinetics of voriconazole N-oxidation in human liver microsomes; assay type: in vitro ADME; conditions: human, human liver microsomes, pH 7.5
[2] = system: human liver microsomes (HLM); assay: as above; assay type: in vitro ADME; conditions: N-oxidation of voriconazole; HLM 0.2 mg/mL
[3] = Michaelis-Menten kinetics of voriconazole N-oxidation in human intestine microsomes; assay type: in vitro ADME; conditions: human, human intestine microsomes, pH 7.5
[4] = system: human intestine microsomes (HIM); assay: as above; assay type: in vitro ADME; conditions: N-oxidation of voriconazole; HIM 0.5 mg/mL
CYP3A4 [5] = assay: Contribution of CYP3A4 to voriconazole N-oxidation, extrapolation from rhCYP with ISEF; assay type: in vitro ADME; conditions: human, pH 7.5, VRC N-oxidation, read-out: extrapolated CLint,CYPi,HLM (CYP3A4)
From the text: Towards the Elucidation of the Pharmacokinetics of
Josefine Schulz 1, Antonia Thomas 1, Ayatallah Saleh 1,2, Gerd Mikus 1,3, Charlotte Kloft 1,† and Robin Michelet 1,*,† 1 Department of Clinical Pharmacy & Biochemistry, Institute of Pharmacy, Freie Universitaet Berlin, Kelchstraße 31, 12169 Berlin, Germany
2 Graduate Research Training Program PharMetrX, 12169 Berlin/Potsdam, Germany 3 Department of Clinical Pharmacology and Pharmacoepidemiology, University Hospital Heidelberg, Im Neuenheimer Feld 410, 69120 Heidelberg, Germany
* Correspondence: robin.michelet@fu-berlin.de; Tel.: +49-30-838-50659
† These authors contributed equally to this work
Supplementary Section S1. Marker reactions for CYP2C19, CYP2C9 and CYP3A4 […]
for CYP3A4 [1,2] were used to determine (i) intersystem extrapolation factors (ISEF), (ii) […]
(i) Experiments for the determination of Michaelis-Menten kinetics in HLM were performed at protein concentrations of 0.02, 0.04 and 0.05 mg/mL for the marker reactions of CYP2C19, CYP2C9 and CYP3A4 (n = 3 each), respectively. Two samples were taken from each incubation after 15 and 25 min for investigations on CYP2C19, after 5 and 10 min for CYP2C9 and after 7 and 12 min for CYP3A4, respectively. […]
were applied as substrate concentrations.
For investigations in rhCYP concentrations of 2.5 pmol/mL rhCYP2C19 (n = 3), […]
respectively. […]

HLM = HLM derived from three individuals, cited from earlier work
CYP2C19 = CYP2C19 (Homo sapiens, UniProt P33261); conditions: read-out: KM of VRC N-oxidation, recombinant CYP2C19, cited from earlier work
[6] = cited from earlier work
CYP3A4 [7] = conditions: mixed inhibition, cited from earlier work
[8] = taken from literature for IVIVE; ref 7 (supplement); cited from earlier work
CYP3A4 [9] = molecular target: T1, CYP3A4 (Homo sapiens, UniProt P08684); parameters: purchased Corning Inc; conditions: cited from earlier work
T1 sequence (P08684 whole entry): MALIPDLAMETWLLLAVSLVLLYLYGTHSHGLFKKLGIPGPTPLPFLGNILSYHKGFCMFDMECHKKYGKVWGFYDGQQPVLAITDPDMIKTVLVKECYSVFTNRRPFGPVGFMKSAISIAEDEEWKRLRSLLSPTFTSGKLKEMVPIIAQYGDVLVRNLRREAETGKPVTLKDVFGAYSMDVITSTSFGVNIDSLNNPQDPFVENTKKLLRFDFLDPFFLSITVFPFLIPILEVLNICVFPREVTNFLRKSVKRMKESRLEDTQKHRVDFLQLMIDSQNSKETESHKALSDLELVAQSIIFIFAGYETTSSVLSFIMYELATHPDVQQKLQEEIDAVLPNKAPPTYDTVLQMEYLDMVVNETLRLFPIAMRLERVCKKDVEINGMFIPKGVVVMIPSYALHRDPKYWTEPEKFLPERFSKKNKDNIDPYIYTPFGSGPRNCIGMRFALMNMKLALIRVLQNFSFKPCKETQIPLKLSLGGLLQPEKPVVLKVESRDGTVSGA

CYP2C9 = CYP2C9 (Homo sapiens, UniProt P11712); parameters: purchased Corning Inc; conditions: read-out: KM of VRC N-oxidation; cited from earlier work
Chain of CYP2C9 (P11712 whole entry): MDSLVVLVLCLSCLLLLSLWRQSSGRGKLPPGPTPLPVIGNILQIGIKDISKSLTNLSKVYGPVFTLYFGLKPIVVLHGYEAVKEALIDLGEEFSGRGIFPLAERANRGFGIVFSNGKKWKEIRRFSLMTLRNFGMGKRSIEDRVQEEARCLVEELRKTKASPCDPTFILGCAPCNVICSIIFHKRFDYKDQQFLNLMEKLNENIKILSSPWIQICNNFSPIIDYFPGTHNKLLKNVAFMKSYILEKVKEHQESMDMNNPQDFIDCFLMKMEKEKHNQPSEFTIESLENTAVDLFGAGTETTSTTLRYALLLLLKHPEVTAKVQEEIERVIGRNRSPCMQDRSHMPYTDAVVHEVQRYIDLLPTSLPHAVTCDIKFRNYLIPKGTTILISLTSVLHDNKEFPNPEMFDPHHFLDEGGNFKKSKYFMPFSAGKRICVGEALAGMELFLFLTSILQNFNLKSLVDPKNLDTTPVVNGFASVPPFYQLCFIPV

CYP3A4 [10] = molecular target: T1, CYP3A4; assay: Michaelis-Menten kinetics of voriconazole N-oxidation by rhCYP3A4

SMILES: C[C@@H](c1ncncc1F)[C@](O)(Cn1cncn1)c1ccc(F)cc1F [VRC, voriconazole]
- Km (HLM; read-out: KM of VRC N-oxidation): 8.1 µM
- bioavailability ([6]; extensive metabolizers): 75%
- Km (CYP3A4 [9]; read-out: KM of VRC N-oxidation, ref 31): 235 µM
- Km (CYP2C9): 20 µM
